# Measurements taken from patent publication US11415576B2, “Method for measurement of vitamin D” (Roche Diagnostics Operations, Inc., priority 2014, dated 2022).
# Biological target: T1, ruthenylated Vitamin D-binding protein conjugate (Homo sapiens, UniProt P02774)
# T1 sequence (P02774 17-474): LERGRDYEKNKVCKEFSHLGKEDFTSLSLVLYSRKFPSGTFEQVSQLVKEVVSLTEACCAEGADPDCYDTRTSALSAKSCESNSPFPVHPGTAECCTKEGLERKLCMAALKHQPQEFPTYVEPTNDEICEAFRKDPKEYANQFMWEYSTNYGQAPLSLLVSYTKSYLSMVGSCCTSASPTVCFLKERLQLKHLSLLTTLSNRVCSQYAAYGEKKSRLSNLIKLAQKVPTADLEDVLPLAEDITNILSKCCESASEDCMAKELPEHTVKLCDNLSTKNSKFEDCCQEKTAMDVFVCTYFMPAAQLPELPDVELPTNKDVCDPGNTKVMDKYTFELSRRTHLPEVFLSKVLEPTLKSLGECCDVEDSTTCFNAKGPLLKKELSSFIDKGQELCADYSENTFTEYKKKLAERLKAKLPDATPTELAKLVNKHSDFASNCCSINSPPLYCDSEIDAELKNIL
# Assay: Elecsys Vitamin D total immunoassay, dilution series in Diluent Universal, without or with blocking reagent
smiles,measurement,setting,value
"C=C1CC[C@H](O)C/C1=C/C=C1\CCC[C@]2(C)[C@@H]([C@H](C)CCCC(C)(C)O)CC[C@@H]12 [25(OH)VitD3, 25-hydroxyvitamin D3]",B/B0,"25 nmoL/L, Reference, without blocking reagent",81%
same,B/B0,"25 nmoL/L, with mAb<24,25(OH)2VitD3> 0.075 mg/mL in R1",77%
same,B/B0,"50 nmoL/L, Reference, without blocking reagent",59%
same,B/B0,"50 nmoL/L, with mAb<24,25(OH)2VitD3> 0.075 mg/mL in R1",63%
same,B/B0,"75 nmoL/L, Reference, without blocking reagent",44%
same,B/B0,"75 nmoL/L, with mAb<24,25(OH)2VitD3> 0.075 mg/mL in R1",49%
same,B/B0,"100 nmoL/L, Reference, without blocking reagent",37%
same,B/B0,"100 nmoL/L, with mAb<24,25(OH)2VitD3> 0.075 mg/mL in R1",42%
same,B/B0,"125 nmoL/L, Reference, without blocking reagent",30%
same,B/B0,"125 nmoL/L, with mAb<24,25(OH)2VitD3> 0.075 mg/mL in R1",33%
same,B/B0,"150 nmoL/L, Reference, without blocking reagent",27%
same,B/B0,"150 nmoL/L, with mAb<24,25(OH)2VitD3> 0.075 mg/mL in R1",30%
same,B/B0,"200 nmoL/L, Reference, without blocking reagent",22%
same,B/B0,"200 nmoL/L, with mAb<24,25(OH)2VitD3> 0.075 mg/mL in R1",23%
same,B/B0,"250 nmoL/L, Reference, without blocking reagent",18%
same,B/B0,"250 nmoL/L, with mAb<24,25(OH)2VitD3> 0.075 mg/mL in R1",18%
same,B/B0,"300 nmoL/L, Reference, without blocking reagent",16%
same,B/B0,"300 nmoL/L, with mAb<24,25(OH)2VitD3> 0.075 mg/mL in R1",15%
same,B/B0,"374 nmoL/L, Reference, without blocking reagent",14%
same,B/B0,"374 nmoL/L, with mAb<24,25(OH)2VitD3> 0.075 mg/mL in R1",13%
same,B/B0,"499 nmoL/L, Reference, without blocking reagent",11%
same,B/B0,"499 nmoL/L, with mAb<24,25(OH)2VitD3> 0.075 mg/mL in R1",10%
same,cross-reactivity of the reference immunoassay,without blocking reagent,showed cross-reactivity
"C=C1CC[C@H](O)C/C1=C/C=C1\CCC[C@@]2(C)C1CC[C@@H]2[C@H](C)CCC(O)C(C)(C)O (stereo partly shown) [24,25(OH)2VitD3, 24,25-dihydroxyvitamin D3]",B/B0,"24 nmoL/L, Reference, without blocking reagent",67%
same,B/B0,"24 nmoL/L, with mAb<24,25(OH)2VitD3> 0.075 mg/mL in R1",95%
same,B/B0,"48 nmoL/L, Reference, without blocking reagent",53%
same,B/B0,"48 nmoL/L, with mAb<24,25(OH)2VitD3> 0.075 mg/mL in R1",92%
same,B/B0,"72 nmoL/L, Reference, without blocking reagent",37%
same,B/B0,"72 nmoL/L, with mAb<24,25(OH)2VitD3> 0.075 mg/mL in R1",91%
same,B/B0,"96 nmoL/L, Reference, without blocking reagent",32%
same,B/B0,"96 nmoL/L, with mAb<24,25(OH)2VitD3> 0.075 mg/mL in R1",91%
same,B/B0,"120 nmoL/L, Reference, without blocking reagent",26%
same,B/B0,"120 nmoL/L, with mAb<24,25(OH)2VitD3> 0.075 mg/mL in R1",88%
same,B/B0,"144 nmoL/L, Reference, without blocking reagent",25%
same,B/B0,"144 nmoL/L, with mAb<24,25(OH)2VitD3> 0.075 mg/mL in R1",88%
same,B/B0,"192 nmoL/L, Reference, without blocking reagent",21%
same,B/B0,"192 nmoL/L, with mAb<24,25(OH)2VitD3> 0.075 mg/mL in R1",86%
same,B/B0,"240 nmoL/L, Reference, without blocking reagent",18%
same,B/B0,"240 nmoL/L, with mAb<24,25(OH)2VitD3> 0.075 mg/mL in R1",82%
same,B/B0,"288 nmoL/L, Reference, without blocking reagent",15%
same,B/B0,"288 nmoL/L, with mAb<24,25(OH)2VitD3> 0.075 mg/mL in R1",76%
same,B/B0,"360 nmoL/L, Reference, without blocking reagent",13%
same,B/B0,"360 nmoL/L, with mAb<24,25(OH)2VitD3> 0.075 mg/mL in R1",74%
same,B/B0,"480 nmoL/L, Reference, without blocking reagent",11%
same,B/B0,"480 nmoL/L, with mAb<24,25(OH)2VitD3> 0.075 mg/mL in R1",66%
same,cross-reactivity of the reference immunoassay,without blocking reagent,showed cross-reactivity
